US8629102B2, “3-hydroxyisothiazole 1-oxide derivatives” (Mochida Pharmaceutical Co., Ltd., priority 2011, dated 2014)

Biological target: T1, GPR40 of human origin (Homo sapiens, UniProt O14842)
T1 construct: expressed in transfected cells
Test: Agonist action on GPR40 of human origin (intracellular Ca2+ change)
Assay type: cell-based
Details: CHO cell strain stably expressing GPR40 of human origin; change in Ca2+ concentration, fluorescent calcium indicator
In short: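 CHO cells stably expressing human GPR40, cultured overnight, then loaded 1 h with Calcium 4 dye plus probenecid in HEPES-buffered HBSS. Compound added in 20 mM HEPES-HBSS; intracellular Ca2+ change read by fluorescence, EC50 from dose-response of fluorescence change.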

T1 sequence (O14842 whole entry): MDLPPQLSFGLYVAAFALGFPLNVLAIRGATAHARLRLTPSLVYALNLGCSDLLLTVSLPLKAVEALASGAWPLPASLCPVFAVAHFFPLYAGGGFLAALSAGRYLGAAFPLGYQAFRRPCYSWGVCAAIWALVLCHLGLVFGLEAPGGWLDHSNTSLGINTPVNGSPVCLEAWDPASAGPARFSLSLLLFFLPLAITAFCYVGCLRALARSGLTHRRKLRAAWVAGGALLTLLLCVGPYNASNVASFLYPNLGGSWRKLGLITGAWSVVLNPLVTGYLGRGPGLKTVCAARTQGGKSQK

Row | EC50 [nM] | Structure (SMILES)
1 | < 300 | Cc1cccc(Oc2cccc3c2CC[C@H]3Oc2ccc(-c3cc(O)n[s+]3[O-])cc2)n1 (stereo partly drawn) [Example 130, 3-hydroxy-5-(4-(((R)-4-((6-methylpyridin-2-yl)oxy)-2,3-dihydro-1H-inden-1-yl)oxy)phenyl)isothiazole 1-oxide]
2 | < 300 | Cc1ccc(Oc2cccc3c2CC[C@H]3Oc2ccc(-c3cc(O)n[s+]3[O-])cc2)nc1 (stereo partly drawn) [Example 134, 3-hydroxy-5-(4-(((R)-4-((5-methylpyridin-2-yl)oxy)-2,3-dihydro-1H-inden-1-yl)oxy)phenyl)isothiazole 1-oxide]
3 | < 300 | Cc1cc(Oc2cccc3c2CC[C@H]3Oc2ccc(-c3cc(O)n[s+]3[O-])cc2)ccn1 (stereo partly drawn) [Example 135, 3-hydroxy-5-(4-(((R)-4-((2-methylpyridin-4-yl)oxy)-2,3-dihydro-1H-inden-1-yl)oxy)phenyl)isothiazole 1-oxide]
4 | < 300 | CN(C)C(=O)c1ccc(Oc2cccc3c2CC[C@H]3Oc2ccc(-c3cc(O)n[s+]3[O-])cc2)cc1 (stereo partly drawn) [Example 137, 4-(((R)-1-(4-(3-hydroxy-1-oxidoisothiazol-5-yl)phenoxy)-2,3-dihydro-1H-inden-4-yl)oxy)-N,N-dimethylbenzamide]
5 | < 300 | N#Cc1ccc(Oc2cccc3c2OCC3Oc2ccc(-c3cc(O)n[s+]3[O-])cc2)cc1 (stereo not shown) [Example 138, 4-((3-(4-(3-hydroxy-1-oxidoisothiazol-5-yl)phenoxy)-2,3-dihydrobenzofuran-7-yl)oxy)benzonitrile]
6 | < 300 | COc1ccc(Oc2cccc3c2OCC3Oc2ccc(-c3cc(O)n[s+]3[O-])cc2)cn1 (stereo not shown) [Example 140, 3-hydroxy-5-(4-((7-((6-methoxypyridin-3-yl)oxy)-2,3-dihydrobenzofuran-3-yl)oxy)phenyl)isothiazole 1-oxide]
7 | < 300 | COc1cccc(Oc2cccc3c2CC[C@H]3Oc2ccc(-c3cc(O)n[s+]3[O-])cc2)n1 (stereo partly drawn) [Example 149, 3-hydroxy-5-(4-(((R)-4-((6-methoxypyridin-2-yl)oxy)-2,3-dihydro-1H-inden-1-yl)oxy)phenyl)isothiazole 1-oxide]
8 | < 300 | [O-][s+]1nc(O)cc1-c1ccc(O[C@@H]2CCc3c2cccc3N2CCCc3ccccc32)cc1 (stereo partly drawn) [Example 158, 5-(4-(((R)-4-(3,4-dihydroquinoline-1(2H)-yl)-2,3-dihydro-1H-inden-1-yl)oxy)phenyl)-3-hydroxyisothiazole 1-oxide]
9 | 300 to 3000 | [O-][s+]1nc(O)cc1-c1cccc(OCCc2cccc(Oc3ccccc3)c2)c1 (stereo not shown) [Example 163, 3-hydroxy-5-(3-(3-phenoxyphenethoxy)phenyl)isothiazole 1-oxide]

Further lines, the molecule ahead of its results:

Row | Structure (SMILES) | EC50 [nM]
10 | N#Cc1ccc(Oc2cccc3c2CC[C@H]3Oc2ccc(-c3cc(O)n[s+]3[O-])cc2)cc1N1CCOC1=O (stereo partly drawn) [Example 131, 4-(((R)-1-(4-(3-hydroxy-1-oxidoisothiazol-5-yl)phenoxy)-2,3-dihydro-1H-inden-4-yl)oxy)-2-(2-oxooxazolidin-3-yl)benzonitrile] | < 300
11 | COc1cccnc1Oc1cccc2c1CC[C@H]2Oc1ccc(-c2cc(O)n[s+]2[O-])cc1 (stereo partly drawn) [Example 132, 3-hydroxy-5-(4-(((R)-4-((3-methoxypyridin-2-yl)oxy)-2,3-dihydro-1H-inden-1-yl)oxy)phenyl)isothiazole 1-oxide] | 300 to 3000
12 | Cc1ccnc(Oc2cccc3c2CC[C@H]3Oc2ccc(-c3cc(O)n[s+]3[O-])cc2)c1 (stereo partly drawn) [Example 133, 3-hydroxy-5-(4-(((R)-4-((4-methylpyridin-2-yl)oxy)-2,3-dihydro-1H-inden-1-yl)oxy)phenyl)isothiazole 1-oxide] | < 300
13 | CNC(=O)c1ccc(Oc2cccc3c2CC[C@H]3Oc2ccc(-c3cc(O)n[s+]3[O-])cc2)cc1 (stereo partly drawn) [Example 136, 4-(((1R)-1-(4-(3-hydroxy-1-oxidoisothiazol-5-yl)phenoxy)-2,3-dihydro-1H-inden-4-yl)oxy)-N-methylbenzamide] | < 300
14 | Cc1nc(OCCC(C)(C)O)ccc1Oc1cccc2c1OCC2Oc1ccc(-c2cc(O)n[s+]2[O-])cc1 (stereo not shown) [Example 141, 3-hydroxy-5-(4-((7-((6-(3-hydroxy-3-methylbutoxy)-2-methylpyridin-3-yl)oxy)-2,3-dihydrobenzofuran-3-yl)oxy)phenyl)isothiazole 1-oxide] | < 300
15 | COCCN(C)C(=O)c1ccc(Oc2cccc3c2CC[C@H]3Oc2ccc(-c3cc(O)n[s+]3[O-])cc2)cc1 (stereo partly drawn) [Example 146, 4-(((R)-1-(4-(3-hydroxy-1-oxidoisothiazol-5-yl)phenoxy)-2,3-dihydro-1H-inden-4-yl)oxy)-N-(2-methoxyethyl)-N-methylbenzamide] | < 300
16 | O=C(c1ccc(Oc2cccc3c2CC[C@H]3Oc2ccc(-c3cc(O)n[s+]3[O-])cc2)cc1)N1CCCC1 (stereo partly drawn) [Example 147, (4-(((R)-1-(4-(3-hydroxy-1-oxidoisothiazol-5-yl)phenoxy)-2,3-dihydro-1H-inden-4-yl)oxy)phenyl)(pyrrolidine-1-yl)methanone] | < 300
17 | Cc1cccc(Oc2cccc3c2OCC3Oc2ccc(-c3cc(O)n[s+]3[O-])cc2)c1 (stereo not shown) [Example 155, 3-hydroxy-5-(4-((7-(m-tolyloxy)-2,3-dihydrobenzofuran-3-yl)oxy)phenyl)isothiazole 1-oxide] | < 300
18 | N#Cc1ccc(-c2cccc3c2CC[C@H]3Oc2ccc(-c3cc(O)n[s+]3[O-])cc2)cc1 (stereo partly drawn) [Example 156, 4-((1R)-1-(4-(3-hydroxy-1-oxidoisothiazol-5-yl)phenoxy)-2,3-dihydro-1H-inden-4-yl)benzonitrile] | < 300
19 | N#Cc1ccc(-c2cccc3c2CC[C@H]3Oc2ccc(-c3cc(O)n[s+]3[O-])cc2)cn1 (stereo partly drawn) [Example 157, 5-((1R)-1-(4-(3-hydroxy-1-oxidoisothiazol-5-yl)phenoxy)-2,3-dihydro-1H-inden-4-yl)picolinonitrile] | 300 to 3000
20 | [O-][s+]1nc(O)cc1-c1ccc(OCc2ccc(Oc3ccccc3)cc2)cc1 (stereo not shown) [Example 159, 3-hydroxy-5-(4-((4-phenoxybenzyl)oxy)phenyl)isothiazole 1-oxide] | < 300
21 | [O-][s+]1nc(O)cc1-c1ccc(OCCc2ccccc2Oc2ccccc2)cc1 (stereo not shown) [Example 161, 3-hydroxy-5-(4-(2-phenoxyphenethoxy)phenyl)isothiazole 1-oxide] | < 300
22 | [O-][s+]1nc(O)cc1-c1ccc(OCCc2ccc(Oc3ccccc3)cc2)cc1 (stereo not shown) [Example 162, 3-hydroxy-5-(4-(4-phenoxyphenethoxy)phenyl)isothiazole 1-oxide] | < 300
